Experimental data reported in patent publication US11655241B2, “Heterocyclic compound and use thereof” (Takeda Pharmaceutical Company Limited, priority 2018, dated 2023).

Molecular target: T1, human orexin type 2 receptor (Homo sapiens, UniProt O43614)
T1 construct: expressed in transfected cells
T1 sequence (O43614 1-444): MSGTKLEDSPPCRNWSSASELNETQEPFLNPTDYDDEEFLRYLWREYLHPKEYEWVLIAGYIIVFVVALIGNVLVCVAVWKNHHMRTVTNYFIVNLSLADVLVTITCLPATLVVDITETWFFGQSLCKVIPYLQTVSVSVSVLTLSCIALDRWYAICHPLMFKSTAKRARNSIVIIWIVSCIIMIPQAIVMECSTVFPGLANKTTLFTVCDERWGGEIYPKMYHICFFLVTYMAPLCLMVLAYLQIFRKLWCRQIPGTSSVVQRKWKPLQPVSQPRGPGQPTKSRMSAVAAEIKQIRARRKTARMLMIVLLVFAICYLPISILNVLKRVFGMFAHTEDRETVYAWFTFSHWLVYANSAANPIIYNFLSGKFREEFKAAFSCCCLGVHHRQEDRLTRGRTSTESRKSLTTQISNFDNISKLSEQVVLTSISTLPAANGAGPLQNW
Test: Measurement of orexin type 2 receptor agonist activity (calcium fluorescence, Fluo-4 AM, FDSS)
Assay type: cell-based
Details: compound at 3 μM; CHO cells forcibly expressing human OX2 receptor; DMSO = 0%, orexin A (human) 10 nM = 100%
From the text: Experimental Example 1: Obtainment of Cell Stably Expressing Human Orexin Type 2 Receptor (hOX2R)
To obtain a cell clone stably expressing human orexin type 2 receptor, human orexin type 2 receptor cDNA was inserted into pcDNA3.1(+) plasmid vector (Invitrogen), and a plasmid DNA for expression of human orexin type 2 receptor (pcDNA3.1(+)/hOX2R) was cloned. The plasmid DNA was introduced into CHO-dhfr cell by an electroporation method, and human orexin type 2 receptor expressing clone cells were obtained by limiting dilution method by using G418 drug resistance as a selection marker.
Experimental Example 2: Measurement of Orexin Type 2 Receptor Agonist Activity
CHO cells forcibly expressing human OX2 receptor were seeded in each well of 384 well black transparent bottom plate (BD Falcon) at 7,500 cells/well, and cultured for one day in a 5% CO2 incubator at 37° C. After removal of the medium in the cell plate, assay buffer A containing a calcium indicator (HBSS (Thermo Fisher Scientific), 20 mM HEPES (Thermo Fisher Scientific), 0.1% BSA (Wako Pure Chemical Industries, Ltd. or Sigma-Aldrich), 2.5 μg/mL Fluo-4 AM (DOJINDO Chemical), 0.08% Pluronic F127 (DOJINDO Chemical), 1.25 mM probenecid (DOJINDO Chemical)) was added at 30 μL/well. The plate was stood for 30 min in a 5% CO2 incubator at 37° C., and further stood at room temperature for 30 min. A test compound prepared by diluting with assay buffer B (HBSS, 20 mM HEPES, 0.1% BSA) was added at 10 μL/well, and the fluorescence value was measured by FDSSμCELL (Hamamatsu Photonics K.K.) every one sec for 1 min, and thereafter every two sec for 1 min 40 sec. The activity (%) of the test compound was calculated assuming that variation in the fluorescence value when DMSO was added instead of the test compound was 0%, and variation in the fluorescence value when orexin A (human) (PEPTIDE INSTITUTE, INC.) was added at the final concentration of 10 nM was 100%. The activity of each compound at the concentration of 3 μM was shown below.

Row | Structure (SMILES) | OX2R agonist activity (3 μM, %)
1 | CN(C)C(=O)C(=O)N[C@H]1CCN(C(=O)C2(C#N)CCC2)[C@H]1Cc1cccc(-c2cccc(F)c2)c1 [Example 36, N^~2^~-((2S,3S)-1-(1-cyanocyclobutane-1-carbonyl)-2-[(3′-flluoro[1,1′-biphenyl]-3-yl)methyl]pyrrolidin-3-yl]-N^~1^~,N^~1^~- dimethylethanediamide] | 86%
2 | CN(C)C(=O)C(=O)N[C@H]1CCN(C(=O)C2(O)CCC2)[C@H]1Cc1cccc(-c2cccc(F)c2)c1 [Example 37, N^~2^~-[(2S,3S)-2-[(3′-fluoro[1,1′-biphenyl]-3-yl)methyl]-1-(1-hydroxycyclobutane-1-carbonyl)pyrrolidin-3-yl]-N^~1^~,N^~1^~- dimethylethanediamide] | 101%
3 | CN(C)C(=O)C(=O)N[C@H]1CCN(C(=O)C(C)(C)CO)[C@H]1Cc1cccc(-c2cccc(F)c2)c1 [Example 40, N^~2^~-[(2S,3S)-2-[(3′-fluoro[1,1′-biphenyl]-3-yl)methyl]-1-(3-hydroxy-2,2-dimethylpropanoyl)pyrrolidin-3-yl]-N^~1^~,N^~1^~-dimethylethanediamide] | 79%
4 | O=C(N[C@H]1CCN(C(=O)C2(F)CCC2)[C@H]1Cc1cccc(-c2cccc(F)c2)c1)[C@@H]1CCCO1 [Example 43, (2S)-N-[(2S,3S)-2-[(3′-fluoro[1,1′-biphenyl]-3-yl)methyl]-1-(1-fluorocyclobutane-1-carbonyl)pyrrolidin-3-yl]oxolane-2-carboxamide] | 62%
5 | O=C(N[C@H]1CCN(C(=O)C2(O)CCC2)[C@H]1Cc1cccc(-c2cccc(F)c2)c1)[C@@H]1CCCO1 [Example 45] | 86%
6 | CC(C)(CO)C(=O)N1CC[C@H](NC(=O)[C@@H]2CCCO2)[C@@H]1Cc1cccc(-c2cccc(F)c2)c1 [Example 46, (2S)-N-[(2S,3S)-2-[(3′-fluoro[1,1′-biphenyl]-3-yl)methyl]-1-(3-hydroxy-2,2-dimethylpropanoyl)pyrrolidin-3-yl]oxolane-2-carboxamide] | 67%
